According to patent US11390617B2, “Methods of treating non-Hodgkin lymphoma using 2-(2,6-dioxopiperidin-3-yl)-4-((2-fluoro-4-((3-morpholinoazetidin-1-yl)methyl)benzyl)amino)isoindoline-1,3-dione” (Celgene Corporation, priority 2019, dated 2022):

Columns and labels:
[1] = test system: SUDHL4 Parental; assay: Viability/apoptosis flow cytometry assay, DLBCL cell lines with acquired resistance to doxorubicin and parental lines; format: cell-based
Procedure: (§1) The following exemplary anti-proliferative assay uses exemplary DLBCL cell lines with acquired resistance to doxorubicin (Table 7). The in vitro growth inhibitory activity of Compound described herein was evaluated using a 384-well flow cytometry assay. The activity of Compound 1 was also evaluated in cell lines with acquired resistance to doxorubicin (one of the curative agents in the DLBCL standard of care regimen R-CHOP [rituximab, cyclophosphamide, doxorubicin, vincristine, and prednisone]) (Table 7).
(§2) The cell lines in Table 7 were plated in 96-well flat bottom plates and assessed with increasing concentrations of compound ranging from 0.0015 to 10 μM or dimethyl sulfoxide (DMSO) control. The final concentration of DMSO was 0.1% (v/v). Following the addition of Compound 1 or DMSO and incubation for 120 hours, cell number and cell death were analyzed by flow cytometry (Attune®, Thermo Fisher) using Annexin V and the vital dye, 7-AAD. Phosphatidylserine translocates from the inner layer to the outer layer of the cell membrane early in apoptosis and Annexin V binds to the exposed phosphatidylserine found on the surface of an apoptotic cell. The dye 7-AAD is excluded by intact live cells and only stains cells that have died as a result of apoptosis or necrosis.
(§3) Flow cytometry data analysis was then performed using the Flow Jo_v10 software to determine the number of viable cells (Annexin V and 7-AAD double negative staining cells) and percentage of apoptotic cells (Annexin V positive cells) for each condition. The live cell count for every concentration was normalized to the DMSO control (considered as 100%) to calculate the percentage of viable cells remaining after treatment and graphed using GraphPad Prism 7.03. The IC50 (50% inhibitory concentration) and Emax (maximum efficacy eliminating tumor cells achieved) values were then calculated by performing nonlinear regression curve fitting using log(inhibitor) vs. normalized response—variable slope analysis on GraphPad Prism 7.03. Area under the curve (AUC) was calculated by performing area under curve analysis on GraphPad Prism 7.03. Similarly, for apoptosis analysis, the percentage of apoptosis combining both “early” (Annexin V positive and 7-AAD negative) and “late” apoptosis (Annexin V and 7-AAD positive) cell gates relative to DMSO was graphed using GraphPad Prism 7.03. The AUC, EC50 (concentration of Compound 1 that produces half-maximal apoptosis response) and Ymax (maximal percentage of apoptosis achieved) values from apoptosis curves were calculated by performing area under curve analysis and nonlinear regression curve fitting using log(agonist) vs. normalized response—Variable slope analysis on GraphPad Prism 7.03.
(§4) In Table 8, dose-response proliferation curves for the cell lines with acquired resistance to doxorubicin and non-linear curve-fit regression were used to determine IC50, AUC, and Emax for % viable cells (Emax for viability varies between 100 at low doses and 0 at high doses, which corresponds to inhibition of all viable cells), and dose-response apoptosis curves were used to determine the EC50, AUC, and Ymax for % apoptosis (Ymax for apoptosis varies from 0 at low doses and 100 at higher doses which corresponds to death of all cells). Tumor cells were exposed to serial dilutions (0.00015 to 10 μM) of Compound 1 or dimethyl sulfoxide (DMSO) control for 5 days. Viability and apoptosis for all cell lines was determined by Annexin V/7-aminoactinomycin D (7-AAD) flow cytometry.

[2] = test system: U2932 Parental; assay: as above; format: cell-based; settings: 120 hours
Procedure: as §1, §2, §3, §4

[3] = test system: Oci-Ly10 Parental; assay: as above; format: cell-based; settings: 120 hours
Procedure: as §1, §2, §3, §4

[4] = test system: Oci-Ly10 DoxoR; assay: as above; format: cell-based; settings: 120 hours
Procedure: as §1, §2, §3, §4

[5] = test system: U2932 DoxoR; assay: as above; format: cell-based; settings: 120 hours
Procedure: as §1, §2, §3, §4

[6] = test system: WSU-DLCL2 DoxoR; assay: as above; format: cell-based
Procedure: as §1, §2, §3, §4

[7] = test system: WSU-DLCL2 Parental; assay: as above; format: cell-based
Procedure: as §1, §2, §3, §4

[8] = test system: SUDHL4 DoxoR; assay: as above; format: cell-based
Procedure: as §1, §2, §3, §4

[9] = test system: OCI-LY10-Luc CNS DLBCL xenograft; assay: OCI-LY10-Luc CNS lymphoma xenograft model (intracranial); format: in vivo, Nude (nu/nu) mice; settings: for % BLI Inhibition on Day 26 / Median Survival: 3 weeks; for % BLI Inhibition on Day 26: relative to vehicle control; for Median Survival: vehicle 35 days
Procedure: Antitumor activity of Compound 1 was evaluated as a single agent in OCI-LY10-luc diffuse large B-cell lymphoma (DLBCL) xenografted intracranially into nude mice as a model for central nervous system (CNS) lymphoma.
CNS lymphoma study was conducted with OCI-LY-10 cells transfected with luciferase (OCI-LY-10-Luc). Nude (nu/nu) mice were inoculated intracranially into the right cerebral hemisphere of the brain with OCI-LY10-Luc cells. Following inoculation of animals, the tumors were allowed to grow for 5 days. On day 5 following tumor cell inoculation, the mice were imaged using IVIS100 imaging system. The mice having tumors with an average flux ranging between 1×10^7 and 2×10^7 photons/sec were pooled together and randomized into various treatment groups. Compound 1 was formulated in 0.5% Methyl Cellulose, 0.25% Tween 80 and 50 mM Citrate pH 3 (MCT) in water. The animals were orally administered vehicle (MCT) or Compound 1 once daily (QD) for 3 weeks. Doses of Compound 1 ranged between 3 and 30 mg/kg. The positive control pomalidomide (30 mg/kg, QD) formulated in aqueous 0.5% CMC and 0.25% Tween-80 was administered PO. The animals were imaged for bioluminescence once a week using IVIS100 imaging system and monitored for survival. Statistical analysis was performed using a log-rank test between Compound 1-treated and vehicle-treated control groups.

[10] = Homo sapiens, SU-DHL-4, 120 hours
[11] = Homo sapiens, read-out: IC50 (% Viable Cells)
[12] = Homo sapiens, WSUDLCL2, 120 hours
[13] = Homo sapiens, WSUDLCL2, 120 hours, read-out: IC50 (% Viable Cells)

## O=C1CC[C@H](N2C(=O)c3cccc(NCc4ccc(CN5CC(N6CCOCC6)C5)cc4F)c3C2=O)C(=O)N1 [Compound 1, (S)-2-(2,6-dioxopiperidin-3-yl)-4-((2-fluoro-4-((3-morpholinoazetidin-1-yl)methyl)benzyl)amino)isoindoline-1,3-dione]
[1]; 120 hours
  AUC (% Viable Cells): 335
  AUC (Apoptosis): 6
  Emax (% Viable Cells): 75%
  Ymax (Apoptosis): 3.7%
[1]; [10]
  EC50: 0.2 µM
[2]
  AUC (% Viable Cells): 193
  AUC (Apoptosis): 45.5
  Emax (% Viable Cells): 28.4%
  Ymax (Apoptosis): 30%
[2]; Homo sapiens
  EC50: 0.44 µM
[2]; [11]
  IC50: 0.03 µM
[3]
  AUC (% Viable Cells): 285.5
  AUC (Apoptosis): 13
  Emax (% Viable Cells): 52%
  Ymax (Apoptosis): 10.12%
[3]; Homo sapiens
  EC50: 0.81 µM
[3]; [11]
  IC50: 0.2 µM
[4]
  AUC (% Viable Cells): 211.8
  AUC (Apoptosis): 27
  Emax (% Viable Cells): 25%
  Ymax (Apoptosis): 19.48%
[4]; Homo sapiens
  EC50: 0.64 µM
[4]; [11]
  IC50: 0.09 µM
[5]
  AUC (% Viable Cells): 256
  AUC (Apoptosis): 15.7
  Emax (% Viable Cells): 27.7%
  Ymax (Apoptosis): 16%
[5]; Homo sapiens
  EC50: 1.12 µM
[5]; [11]
  IC50: 0.25 µM
[6]; 120 hours
  AUC (% Viable Cells): 195.9
  AUC (Apoptosis): 74.4
  Emax (% Viable Cells): 8.4%
  Ymax (Apoptosis): 57%
[6]; [12]
  EC50: 0.4 µM
[6]; [13]
  IC50: 0.07 µM
[7]; 120 hours
  AUC (% Viable Cells): 166.7
  AUC (Apoptosis): 51
  Emax (% Viable Cells): 28%
  Ymax (Apoptosis): 29.5%
[7]; [12]
  EC50: 0.32 µM
[7]; [13]
  IC50: 0.01 µM
[8]; 120 hours
  AUC (% Viable Cells): 182.4
  AUC (Apoptosis): 84
  Emax (% Viable Cells): 7.5%
  Ymax (Apoptosis): 63.5%
[8]; [10]
  EC50: 0.4 µM
[8]; Homo sapiens, SU-DHL-4, 120 hours, read-out: IC50 (% Viable Cells)
  IC50: 0.072 µM
[9]; 3 mg/kg QD oral
  % BLI Inhibition on Day 26: 97.2%
  Median Survival: 61 days
[9]; 10 mg/kg QD oral
  % BLI Inhibition on Day 26: 99.1%
  Median Survival: 69 days
[9]; 10 mg/kg, day 120 (2/9)
  animals survived with no detectable bioluminescence signal: 22.2%
[9]; 30 mg/kg QD oral
  % BLI Inhibition on Day 26: 99.5%
  Median Survival: 97 days
[9]; 30 mg/kg, day 120 (3/9)
  animals survived with no detectable bioluminescence signal: 33.3%
